What was measured:
Type in all cases: cell-based
[1] = test system: wild germs from hand's volunteers (mainly Staphylococcus epidermitis); experiment: Lasting antibacterial protection of the surface (treated ceramic tiles, imprint cfu count); settings: tiles rinsed 2×10 ml deionized water; inoculated 5 hours; counted after 48 hours at RT
Description: Measure of the Lasting Antibacterial Protection of the Surface […] After overnight drying of the treatment, tiles are rinsed with 2×10 ml deionized water and let dry for 1 hour. Tiles are then inoculated in the horizontal position for 5 hours with 200 μl of a suspension of wild germs from hand's volunteers (mainly Staphylococcus […]). After rinsing of the surface with 2×10 ml sterile tap water to remove the germs source, the contamination of the surface is determined by direct imprint with Tryptic Soy Agar plates (a nutritive gelified support). Colony forming units (=cfu=microorganisms) are counted after 48 hours incubation at RT.

[2] = test system: wild germs from hand's volunteers (mainly Staphylococcus epidermitis); experiment: Lasting antibacterial protection, stronger rinsing with water
Description: (§1) Ceramic tiles are treated with 200 μl of the solutions to test; untreated tiles are used as reference. After overnight drying of the treatment, tiles are rinsed with 2×10 ml deionized water and let dry for 1 hour. Tiles are then inoculated in the horizontal position for 5 hours with 200 μl of a suspension of wild germs from hand's volunteers (mainly Staphylococcus epidermitis). After rinsing of the surface with 2×10 ml sterile tap water to remove the germs source, the contamination of the surface is determined by direct imprint with Tryptic Soy Agar plates (a nutritive gelified support). Colony forming units (=cfu=microorganisms) are counted after 48 hours incubation at RT.
Stronger Rinsing with Water:
Methodology is the same as described under example II but rinsing is operated either with 2×10 ml or 5×10 ml water or with a tap water shower head during 30 sec.

[3] = test system: wild germs from hand's volunteers (mainly Staphylococcus epidermitis); experiment: Lasting antibacterial protection, PHMB-Mucin in surfactant solutions; settings: surfactant solution alone (NO PHMB-Mucin), 2.5% AI in water
Description: as §1
PHMB-Mucin in Surfactant Solutions
Test methodology is described under example II. We considered nonionic surfactants (Neodols), anionics (SLS, PS), and amphoteric (CAPB) at 2.5% Al in water. The mixture is Neodol 91-8 1.25%, Neodol 91-5 0.25%, CAPB 0.45%, PS 0.5%.

[4] = rinsing tap water shower head 30 sec.

| Molecule | Cfu/ceramic tile Average on 3 replicates [1] [Cfu/ceramic tile] | cfu/ceramic tile average on 3 replicates ([2]; rinsing 2 × 10 ml water) [cfu/ceramic tile] | cfu/ceramic tile average on 3 replicates ([2]; rinsing 5 × 10 ml water) [cfu/ceramic tile] | cfu/ceramic tile average on 3 replicates [2, 4] [cfu/ceramic tile] | cfu/tile - average on 3 replicates ([3]; series of PHMB 0.06%-Mucin 0.03%) [cfu/tile] | cfu/tile - average on 3 replicates ([3]; series of PHMB 0.09%-Mucin 0.05%) [cfu/tile] |
| --- | --- | --- | --- | --- | --- | --- |
| mucin [Mucin 0.1%] | 82 ± 15 | 50 ± 19 | 129 ± 36 | 149 ± 5 |  |  |
| mucin [Mucin 0.05%] | 68 ± 12 | 26 ± 7 | 98 ± 23 | 72 ± 17 |  |  |
| CCCCCCCCCCCCOS(=O)(=O)[O-].[Na+] [SLS, sodium lauryl sulfate] |  |  |  |  | 277 ± 34 | 77 ± 25 |
| mucin [Mucin 0.03%] | 110 ± 18 | 37 ± 3 | 118 ± 43 | 145 ± 8 |  |  |

Source: patent US20050084468A1, “Antimicrobial cleaning composition” (Colgate-Palmolive Company, priority 2003, published 2005)
